# In US20150133492A1, “N-desmethyldauricine, A Novel Autophagic Enhancer for Treatment of Cancers and Neurodegenerative Conditions Thereof” (Macau University of Science and Technology, priority 2013, published 2015):
# How the values were obtained:
# HeLa cancer cells [1] = assay: Quantification of autophagy GFP-LC3 puncta in HeLa; assay type: cell-based, human; conditions: 10 μM, 4 hours, compared to DMSO control
# Experimental: (§1) GFP-LC3 puncta formation was quantified as previously described^15. In brief, cells grown on coverslips in a 6-well plate were treated with or without 10 μM of N-desmethyldauricine for 4 hours, the cells were then fixed in 4% paraformaldehyde for 20 minutes at room temperature and then rinsed with PBS. Slides were mounted with FluorSave™ mounting media (Calbiochem, San Diego, Calif.) and examined by fluorescence microscopy. The number of GFP-positive cells with GFP-LC3 puncta formation was examined under the Nikon ECLIPSE 80i microscope. Representative images were captured with CCD digital camera Spot RT3™ (Diagnostic Instruments, Inc., Melville, N.Y.). To quantify for autophagy, the percentage of cells with punctate GFP-LC3 fluorescence was calculated by counting the number of the cells with punctate GFP-LC3 fluorescence in GFP-positive cells. A minimum of 150 cells from 3 randomly selected fields was scored.
# HeLa cancer cells [2] = assay: Transmission electron microscopy of autophagosomes/autolysosomes; assay type: cell-based, human; conditions: treated HeLa cancer cells
# Text: N-desmethyldauricine treated HeLa cells were fixed overnight with 2.5% glutaraldehyde followed by a buffer wash. Samples were post-fixed in 1% OsO4 and embedded in Araldite 502. Ultrathin sections were double stained with uranyl acetate and lead citrate, and analyzed by Philips CM 100 transmission electron microscope at a voltage of 80 kV.
# [3] = tested on: Atg7-knockout (Atg7−/−) mouse embryonic fibroblasts; assay: GFP-LC3 puncta in Atg7 deficient MEFs; assay type: cell-based
# Experimental: as §1, with “brief, both Atg7 wild-type and deficient mouse embryonic fibroblasts (MEFs)” for “brief, cells”, “with indicated concentrations” for “with or without 10 μM”, “of N-desmethyldauricine. Both Atg7 wild-type and deficient mouse embryonic fibroblasts” for “of N-desmethyldauricine for 4 hours, the cells”
# [4] = tested on: AMPK-mTOR signaling pathway; assay: Western blot of mTOR signaling marker proteins; assay type: cell-based, human; conditions: HeLa
# Experimental: HeLa cells treated with indicated time and concentrations of N-desmethyldauricine were harvested and lysed in RIPA buffer (Cell Signaling). The cell lysates were then resolved by SDS-PAGE. After electrophoresis, the proteins from SDS-PAGE were transferred to nitrocellulose membrane which was then blocked with 5% non-fat dried milk for 60 minutes. The membrane was then incubated with P-p70S6K, p70S6K, P-AMPK, AMPK and actin primary antibodies (1:1000) in TBST overnight at 4° C. respectively. After that, the membrane was further incubated with HRP-conjugated secondary antibodies for 60 minutes. Finally, protein bands were visualized by using the ECL Western Blotting Detection Reagents (Invitrogen).
# SERCA1A = molecular target: T1, SERCA1A (Oryctolagus cuniculus, UniProt P04191); assay: Measurement of SERCA Ca2+ ATPase activity; assay type: biochemical; conditions: rabbit skeletal muscle SR, dose-dependent
# T1 construct: Purified Ca^2+ ATPase (SERCA1A) is prepared from female rabbit hind leg muscle; from tissue; host or cells: female rabbit hind leg skeletal muscle (sarcoplasmic reticulum)
# T1 sequence (P04191 1-994 isoform P04191-2): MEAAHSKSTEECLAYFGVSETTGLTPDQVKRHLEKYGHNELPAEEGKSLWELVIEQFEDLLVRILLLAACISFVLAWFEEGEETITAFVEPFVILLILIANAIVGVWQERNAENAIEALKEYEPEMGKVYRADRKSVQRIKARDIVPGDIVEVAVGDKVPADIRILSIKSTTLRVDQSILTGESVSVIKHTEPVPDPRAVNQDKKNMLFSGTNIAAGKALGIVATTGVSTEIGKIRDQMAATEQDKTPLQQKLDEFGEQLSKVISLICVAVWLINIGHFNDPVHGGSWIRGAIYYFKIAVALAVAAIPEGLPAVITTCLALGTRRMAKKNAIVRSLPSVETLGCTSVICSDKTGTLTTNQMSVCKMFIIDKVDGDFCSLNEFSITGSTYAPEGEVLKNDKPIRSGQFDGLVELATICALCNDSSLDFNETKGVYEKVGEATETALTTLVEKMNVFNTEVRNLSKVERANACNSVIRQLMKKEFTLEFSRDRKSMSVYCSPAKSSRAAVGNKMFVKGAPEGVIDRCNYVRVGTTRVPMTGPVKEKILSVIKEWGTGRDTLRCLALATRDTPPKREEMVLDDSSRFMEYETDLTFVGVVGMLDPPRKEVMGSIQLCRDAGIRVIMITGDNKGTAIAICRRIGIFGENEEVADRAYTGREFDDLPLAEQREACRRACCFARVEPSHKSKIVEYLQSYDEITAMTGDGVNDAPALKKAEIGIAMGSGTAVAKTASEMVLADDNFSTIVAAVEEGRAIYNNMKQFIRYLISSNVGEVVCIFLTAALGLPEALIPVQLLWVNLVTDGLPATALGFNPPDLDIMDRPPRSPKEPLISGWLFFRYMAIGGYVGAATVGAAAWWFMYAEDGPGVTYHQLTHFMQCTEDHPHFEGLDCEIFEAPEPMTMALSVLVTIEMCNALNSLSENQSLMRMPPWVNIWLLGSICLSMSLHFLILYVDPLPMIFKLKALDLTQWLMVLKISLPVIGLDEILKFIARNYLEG
# Experimental: Purified Ca^2+ ATPase (SERCA1A) is prepared from female rabbit hind leg muscle^24. ATPase activity is determined using the enzyme-coupled method utilizing pyruvate kinase and lactate dehydrogenase as previously described in Michelangeli et al. (1990)^25. All SERCA inhibition data is fitted to the allosteric dose versus effect equation using Fig P (Biosoft):
# Activity=minimum activity+(maximum activity−minimum activity)/(1+([I]IC50)P).
# In molecular docking, 5000 poses were generated during the initial phase of the docking calculation, out of which the best 1000 poses were chosen for energy minimization by 1000 steps of conjugate gradient minimizations. The performance of molecular docking was evaluated by comparing the docked pose with the experimental structure for N-desmethyldauricine in the X-ray co-crystallized complex. TG in the X-ray co-crystallized complexes was re-docked into the binding sites and the RMSD for re-docked result of TG is 1.78 Å. […] To ascertain whether the SERCA pump is suppressed by N-desmethyldauricine, SERCA inhibitory effect is quantified using purified rabbit skeletal muscle sarcoplasmic reticulum (SR) membranes to measure the expression of the SERCA1A isoform by the SR membrances^26. Most of the existing SERCA inhibitors show similar inhibitory effect in SERCA isoform ^15,16. […]
# Atg7+/+ cells = assay: Annexin V flow cytometry cell death, Atg7 wild-type MEFs; assay type: cell-based, mouse; conditions: 10 μM, 24 h
# Experimental: Cell viability was measured using an annexin V staining kit (BD Biosciences, San Jose, Calif., USA). Briefly, Atg7 wild-type (Atg7^+/+ or Atg7-wt) and Atg7 deficient (Atg7^−/− or Atg7-ko) mouse embryonic fibroblasts (MEFs) were treated with the 10 μM N-desmethyldauricine for 24 h. Cells were then harvested and analysed by multiparametric flow cytometry using FITC-Annexin V and Propidium iodide staining (BD Biosciences, San Jose, Calif., USA) according to the manufacturer's instructions. Flow cytometry was then carried out using a FACSCalibur flow cytometer (BD Biosciences, San Jose, Calif., USA). Data acquisition and analysis was performed with CellQuest (BD Biosciences, San Jose, Calif., USA). Data were obtained from three independent experiments.
# [5] = tested on: EGFP-tagged mutant huntingtin (Q23, Q55, Q74); assay: Removal of mutant huntingtin by immunoblotting; assay type: cell-based; conditions: PC 12, 7.5 μM, 24 hours
# Experimental: PC 12 cells were transfected transiently with EGFP-HDQ23/55/74 (Q23, Q55, Q74) plasmids for 24 hours using Lipofectamine Plus LTX reagent (Invitrogen) according to the manufacturer's protocol. The transfected cells were then treated with N-desmethyldauricine for 24 hours. The removal of mutant huntingtin, (Q23, Q55, Q74) were then quantitated by immunoblotting with antibody against EGFP.
smiles,measurement,setting,value
COc1cc2c(cc1OC)[C@@H](Cc1ccc(Oc3cc(C[C@H]4NCCc5cc(OC)c(OC)cc54)ccc3O)cc1)N(C)CC2 [N-desmethyldauricine],GFP-LC3 puncta formation,HeLa cancer cells [1],significantly induced
same,autophagosomes/autolysosomes by electron microscopy,HeLa cancer cells [2],found
same,GFP-LC3 puncta formation,[3],not
same,p70S6K phosphorylation,[4],concomitant reduction
same,phosphorylation of AMPK,[4]; time dependent,activate
same,Ca2+ ATPase activity of SERCA,SERCA1A,inhibited
same,cell death,Atg7+/+ cells,markedly induce cell death
same,clearance of overexpressed EGFP-tagged mutant huntingtin,[5],enhance the clearance
